According to patent US6713057B1, “Compositions and methods for modulating serum cholesterol” (The Johns Hopkins University, priority 1999, dated 2004):

Experiments:
[1] = tested on: SREBP-1; test: Electrophoretic mobility shift assay, SREBP-1 binding to SRE probe; type: cell-based, human; details: for amount of probe bound (electrophoretically retarded) by mature SREBP-1: TNF-α 10 ng/ml, sphingomyelinase 100 mUnits, C2-ceramide 10 μM
Experimental: FIGS. 6A-6D show electrophoretic mobility shift assays. FIGS. 6A-D are explained in more detail as follows. Cells were maintained in sterol supplemented media. Nuclear pellets were prepared and assayed as described in materials and methods. Probe that has been bound by mature SREBP-1 is indicated as “Bound”. Unbound probe is indicated as “Free”. The kinetics (in minutes) of SREBP-1 binding to the probe in response to treatment with (FIG. 6A). TNF-α (10 ng/ml), (FIG. 6B) sphingomyelinase (100 mUnits) and (FIG. 6C) C2-ceramide ([…]). (FIG. 6D). The cells were treated with either TNF-α (10 ng/ml), sphingomyelinase (100 mUnits) or C2-ceramide (10 μM) for 15 minutes. Supershift assays were then performed with antibodies raised against the DNA binding domain of SREBP-1. The presence or absence of antibody is indicated by (+) and (−) respectively. Pre-immune IgG was used as a control.
Gel mobility shift assays were performed as follows. Each 20 μl reaction mixture contained 8-10 μg of nuclear protein plus a α-[^32P]-labeled 25-base pair oligonucleotide probe containing the SREBP-binding site (14) in binding buffer (10 mM Hepes, pH 7.5, 0.5 mM spermidine, 0.15 mM EDTA, 10 mM dithiothreitol, 0.35 mM sucrose). The reaction mixture was incubated at room temperature for 15 min and loaded directly onto a 6.5% polyacrylamide (49:0.6 acrylamide/bisacrylamide) gel in a buffer of 25 mM Tris borate (pH 8.0), 0.25 mM EDTA. In some experiments, antisera specific for SREBP or preimmune sera were added to reaction mixtures to determine the composition of protein-probe complexes. For these “supershift” assays, extracts were incubated with 1 μl of preimmune sera or an equal volume of anti-SREBP antisera at 4° C. for 30 min prior to addition of α-[^32P]-labeled probe. In all experiments, proteins were separated by electrophoresis at 200 V for 2 h at room temperature. Gels were dried and exposed to Kodak XAR film with intensifying screens. Assays were repeated with nuclear extracts obtained from three unique experiments and evaluated by phosphoimage analysis to ensure reproducibility of results.

[2] = tested on: SREBP-1; test: SREBP-1 maturation (Western immunoblot) in hepatocytes transfected with N-SMase plasmids or incubated with r-N-SMase; type: cell-based, human; details: C-2 ceramide positive control
Experimental: The present example was conducted to address whether the overexpression of N-SMase employing two separate N-SMase plasmid DNA(PHH-1, representing the entire nucleotide sequence in N-SMase cDNA and PHH-11, representing nucleotide sequence 862-1414) would increase the maturation of SREBP-1 and LDL receptor mRNA expression in a human hepatocyte cell line […]. Cells transfected with mock plasmid cDNA(PSV-SPOT) served as a control and cells incubated with C-2 ceramide previously shown to induce SREBP-1 maturation served as a positive control.
Briefly, human hepatocytes(1×10^4) were seeded in sterile 100 mm^2 in medium containing 10% dialyzed, heat inactivated fetal bovine serum without antibiotics. Twenty four hours later medium was replaced with 9 ml of fresh serum free medium. After incubation for 30 min at 37° C. 5-40 μg of the plasmid DNA in 1 ml of a CaCl2 solution (mixed with equal volume of 0.25-2.5 M CaCl2 solution in HEPES buffer and HEPES buffer pH 6.95). Following gentle mixing incubation of cells was continued for 5-24 hr at 37° C. The transfection reaction was terminated by removing the medium and washing the cells with serum free medium. Next, fresh serum supplemented medium was added and incubation was continued for an additional 24 hr and cells were harvested in appropriate buffer centrifuged and stored frozen until further analysis. […]

[3] = tested on: LDL receptor mRNA; test: LDL receptor mRNA, Northern analysis in human hepatocytes; type: cell-based; details: TNF-α treatment
Experimental: Briefly, human hepatocytes(1×10^4) were seeded in sterile 100 mm^2 in medium containing 10% dialyzed, heat inactivated fetal bovine serum without antibiotics. Twenty four hours later medium was replaced with 9 ml of fresh serum free medium. After incubation for 30 min at 37° C. 5-40 μg of the plasmid DNA in 1 ml of a CaCl2 solution (mixed with equal volume of 0.25-2.5 M CaCl2 solution in HEPES buffer and HEPES buffer pH 6.95). Following gentle mixing incubation of cells was continued for 5-24 hr at 37° C. The transfection reaction was terminated by removing the medium and washing the cells with serum free medium. Next, fresh serum supplemented medium was added and incubation was continued for an additional 24 hr and cells were harvested in appropriate buffer centrifuged and stored frozen until further analysis. Cell pellets were homogenized and suitable aliquots subjected to Western immunoblot analysis as described below and in Examples 1-7 above. Total RNA was isolated from another batch of cells transfected as above and subjected to Northern analysis employing a ^32P labeled LDL receptor consensus sequence. The autoradiographs were developed and photographed.

[4] = tested on: neutral sphingomyelinase (N-SMase); test: Neutral sphingomyelinase assay after TNF-α stimulation of HH-25 cells; type: cell-based, human; details: TNF-α 10 ng/ml
Experimental: FIG. 1 illustrates the effect of TNF-α on neutral sphingomyelinase activity and is explained in more detail as follows: Confluent cultures of HH-25 cells were washed once with PBS and incubated in serum free media for 30 minutes prior to the addition of TNF-α (10 ng/ml). At the indicated time, cells were harvested in PBS, pelleted and frozen. Cells were subsequently lysed as described in materials and methods. N-SMase assays were performed in duplicate as described. Error bars represent ±one standard deviation from the mean.
After stimulation with TNF-α for the indicated time intervals, the cells were washed once with 5 ml PBS and harvested. The pellet was stored frozen at −70° C. and resuspended in 0.5 ml buffer B (100 mM Tris HCl pH 7.4, 0.1% triton X-100, 1 mM EDTA and protease inhibitors). The cell suspension was sonicated 3 times (3 second bursts) using a probe sonicator and centrifuged at 500×g at 4° C. for 5 minutes. The supernatant was used as the enzyme source.
100 μg of protein was assayed for neutral sphingomyelinase activity in a buffer consisting of 5 mM Tris HCl pH 7.4, 0.1% triton X-100, 0.1 mg BSA, 5 mM MgCl2, and […] [^14C] sphingomyelin (12,000 dpm). The assay was incubated at 37° C. for 1.5 hours and terminated with the addition of 1 ml of 10% TCA. […]

Compound | rate of accumulation of active, nuclear SREBP-1 compared with TNF-α or sphingomyelinase [1] | amount of probe bound (electrophoretically retarded) by mature SREBP-1 [1] | maturation of SREBP-1 compared to mock cDNA transfected cells ([2]; PHH1 5,10,20,40 μg plasmid DNA/dish, PHH11 20 μg/dish) | maturation of SREBP-1 in hepatocytes incubated with protein or ceramide ([2]; r-N-SMase 0.4, 0.8, 2, and 4 μg/ml) | LDL receptor mRNA level [3] | return of N-SMase activity to control levels [4] | maximal increase in neutral sphingomyelinase activity ([4]; 15 minutes after addition)
CCCCCCCCCCCCC/C=C/[C@@H](O)[C@H](CO)NC(C)=O [C2-ceramide, N-acetylsphingosine, reference compound] | more rapid accumulation | increases | markedly increased | markedly increased |  |  | 
TNF-α |  | increases with time |  |  | induces LDL receptor mRNA level | ≤ 1 h | 2.5 fold
